Consider nine compounds from PubChem BioAssay (NCI).

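Interpolation was linear, between the two tested concentrations surrounding the appropriate level; five concentrations were tested over 48 hours in 96-well plates. The concentration for 50% growth inhibition is given as GI50. TGI: concentration producing complete growth inhibition.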 Bounds are passed on as bounds.

Test systems include 786-0 renal; HOP-62 NSCLC; HOP-92 NSCLC; K-562 leukemia; OVCAR-5 ovarian; SF-268 CNS; SF-539 CNS; SK-MEL-5 melanoma; SNB-19 CNS; U251 CNS.
What all share (assay): inhibition of tumour cell growth, NCI panel, 48 h

Take `O=C1/C=C/[C@@H](O)[C@@H]2C[C@@H](O)C[C@H]2/C=C/CCC[C@H](CCc2cccc3ccccc23)O1`: the GI50 was 0.02 µM in the assay on 786-0 renal; 0.0713 µM in the assay with HOP-62 NSCLC; 12.3 µM in the assay on HOP-92 NSCLC; 0.368 µM in the assay on K-562 leukemia; 0.103 µM in the assay on OVCAR-5 ovarian; 0.0365 µM with SF-268 CNS. Also, the GI50 in the assay with SF-539 CNS was 0.121 µM; in the assay with SK-MEL-5 melanoma, 0.0171 µM; in the assay with SNB-19 CNS it was 0.0923 µM; with U251 CNS it was 0.0475 µM. Further, the TGI was 0.0372 µM in the assay with 786-0 renal; 11.8 µM in the assay on HOP-62 NSCLC; 26.4 µM in the assay with HOP-92 NSCLC; 14.4 µM in the assay on K-562 leukemia; 13.9 µM in the assay with OVCAR-5 ovarian; 12.3 µM in the assay on SF-268 CNS. Moreover, the TGI in the assay with SF-539 CNS is 16.3 µM; in the assay on SK-MEL-5 melanoma it was 0.0326 µM; in the assay on SNB-19 CNS, 22 µM; in the assay on U251 CNS it was 12.1 µM.
In the case of `Cn1c(=O)c(Oc2ccc(F)cc2F)cc2cnc(NC(C)(C)CO)nc21`, the GI50 is over 25 µM in the assay with 786-0 renal; over 25 µM in the assay on HOP-62 NSCLC; 7.44 µM with HOP-92 NSCLC; over 25 µM in the assay on K-562 leukemia; over 25 µM in the assay on OVCAR-5 ovarian; over 25 µM in the assay with SF-268 CNS. In addition, the GI50 in the assay on SF-539 CNS, with SK-MEL-5 melanoma, in the assay on SNB-19 CNS and in the assay on U251 CNS was over 25 µM throughout. Moreover, the TGI in the assay with 786-0 renal, in the assay on HOP-62 NSCLC, in the assay with HOP-92 NSCLC, with K-562 leukemia, with OVCAR-5 ovarian and with SF-268 CNS was over 25 µM throughout. Moreover, the TGI in the assay on SF-539 CNS, with SK-MEL-5 melanoma, in the assay with SNB-19 CNS and in the assay on U251 CNS was over 25 µM each time.
As for `COC(OC)c1cc2c(cc1C=O)OCO2`, the TGI in the assay with 786-0 renal, in the assay on HOP-62 NSCLC, in the assay with HOP-92 NSCLC, in the assay with K-562 leukemia, with OVCAR-5 ovarian and in the assay on SF-268 CNS was over 100 µM throughout. Besides, the TGI in the assay with SF-539 CNS, with SK-MEL-5 melanoma, with SNB-19 CNS and in the assay on U251 CNS was over 100 µM each time.
As to `O=C(Nc1ccc(Cc2ccccc2)cc1)Nc1nn(C(=O)Nc2ccc(Cc3ccccc3)cc2)c2ccccc12`, the GI50 in the assay with 786-0 renal is over 100 µM; in the assay on HOP-62 NSCLC, 59.7 µM; with HOP-92 NSCLC it was 18 µM; with K-562 leukemia, 40.5 µM; with OVCAR-5 ovarian, over 100 µM; with SF-268 CNS, 75.6 µM. The GI50 was over 100 µM in the assay with SF-539 CNS, over 100 µM in the assay with SK-MEL-5 melanoma, over 100 µM in the assay with SNB-19 CNS and 70.2 µM with U251 CNS. The TGI in the assay with 786-0 renal, in the assay with HOP-62 NSCLC, in the assay on HOP-92 NSCLC, with K-562 leukemia, in the assay on OVCAR-5 ovarian and with SF-268 CNS was over 100 µM in each case. In addition, the TGI with SF-539 CNS, in the assay with SK-MEL-5 melanoma, in the assay on SNB-19 CNS and with U251 CNS was over 100 µM throughout.
For `Cc1c2ccn(O)cc2c(C)c2c1nc1ccccc12`, the TGI in the assay on 786-0 renal is 35.4 µM; with HOP-62 NSCLC, 27.5 µM; with HOP-92 NSCLC, 38.5 µM; in the assay on K-562 leukemia, over 81.4 µM; with OVCAR-5 ovarian, 53.5 µM; with SF-268 CNS, 27.5 µM. For the same compound, the TGI was 11 µM in the assay on SF-539 CNS, over 100 µM with SK-MEL-5 melanoma, 30.8 µM in the assay with SNB-19 CNS and 16.7 µM in the assay on U251 CNS.
Turning to `CN(CCCCCl)P(=O)(OCCS(=O)(=O)CC(NC(=O)CCC(N)C(=O)O)C(=O)NC(C(=O)O)c1ccccc1)OCC1OC(n2ccc(N)nc2=O)C(O)C1O` (stereo not given), the GI50 in the assay with 786-0 renal is 32.2 µM; in the assay with HOP-62 NSCLC, 33.7 µM; in the assay with HOP-92 NSCLC, 4.8 µM; in the assay with K-562 leukemia, 7.36 µM; with OVCAR-5 ovarian it was over 26.1 µM; in the assay with SF-268 CNS, 49.8 µM. Also, the GI50 in the assay on SF-539 CNS is over 75 µM; in the assay on SK-MEL-5 melanoma it was 20.4 µM; with SNB-19 CNS, 45.8 µM; with U251 CNS, 29.9 µM. The TGI in the assay with 786-0 renal is over 75 µM; in the assay with HOP-62 NSCLC, over 75 µM; in the assay with HOP-92 NSCLC, 74.1 µM; with K-562 leukemia it was over 75 µM; in the assay on OVCAR-5 ovarian it was over 75 µM; in the assay with SF-268 CNS it was over 75 µM. Also, the TGI in the assay on SF-539 CNS, in the assay with SK-MEL-5 melanoma, in the assay with SNB-19 CNS and with U251 CNS was over 75 µM in each case.
As for `CC1(C)S[C@@H]2[C@H](N3C(=O)c4ccccc4C3=O)CN2[C@H]1NC(=O)N[C@@H]1N2C[C@@H](N3C(=O)c4ccccc4C3=O)[C@H]2SC1(C)C`, the TGI was over 100 µM in the assay on 786-0 renal; over 100 µM with HOP-62 NSCLC; over 100 µM with HOP-92 NSCLC; over 100 µM with K-562 leukemia; over 100 µM with OVCAR-5 ovarian; 81.3 µM in the assay on SF-268 CNS. Further, the TGI in the assay on SF-539 CNS is over 100 µM; in the assay on SK-MEL-5 melanoma, over 100 µM; in the assay with SNB-19 CNS, over 100 µM; in the assay with U251 CNS, 58.5 µM.
With `Cc1c(O)c(N=Nc2nc3ccccc3s2)c2ccccc2c1O`, the GI50 in the assay with 786-0 renal is over 50 µM; in the assay on HOP-62 NSCLC, over 50 µM; with HOP-92 NSCLC, 33.9 µM; in the assay on K-562 leukemia, 14.7 µM; with OVCAR-5 ovarian, over 50 µM; in the assay on SF-268 CNS, 18.2 µM. Further, the GI50 in the assay with SF-539 CNS was 18.3 µM; in the assay with SK-MEL-5 melanoma, 8.85 µM; in the assay on SNB-19 CNS it was 28.4 µM; with U251 CNS, 25.5 µM. Besides, the TGI in the assay on 786-0 renal is over 50 µM; in the assay on HOP-62 NSCLC, over 50 µM; in the assay on HOP-92 NSCLC it was over 50 µM; in the assay on K-562 leukemia, 48.3 µM; in the assay with OVCAR-5 ovarian, over 50 µM; in the assay on SF-268 CNS it was over 50 µM. Also, the TGI in the assay on SF-539 CNS was over 50 µM; with SK-MEL-5 melanoma it was 21.2 µM; with SNB-19 CNS, over 50 µM; in the assay on U251 CNS it was over 50 µM.
For `COC(=O)C1=C(O)[C@H](C(=O)OC)C2(O)C(C(=O)OC)[C@H](c3ccc(OC(=O)C(C)c4ccccc4)cc3)C[C@@H]1[C@@H]2C(=O)OC` (stereo not given in full), the GI50 with 786-0 renal is 38.9 µM; in the assay on HOP-62 NSCLC, 23.8 µM; in the assay on HOP-92 NSCLC it was over 50 µM; with K-562 leukemia it was 19.4 µM; with OVCAR-5 ovarian, over 50 µM; in the assay on SF-268 CNS, 17.2 µM. Besides, the GI50 in the assay on SF-539 CNS is 11.8 µM; in the assay on SK-MEL-5 melanoma it was 8.53 µM; in the assay on SNB-19 CNS, 23.7 µM; in the assay on U251 CNS it was 27.4 µM. The TGI in the assay with 786-0 renal, in the assay with HOP-62 NSCLC, in the assay with HOP-92 NSCLC, in the assay on K-562 leukemia, with OVCAR-5 ovarian and in the assay on SF-268 CNS was over 50 µM in each case. Further, the TGI with SF-539 CNS is 34.1 µM; in the assay with SK-MEL-5 melanoma, 23 µM; with SNB-19 CNS, over 50 µM; in the assay with U251 CNS it was over 50 µM.
